# Legend:
# [1] = test system: healthy young male subjects; conditions: human, single oral doses 50-800 mg
# Procedure: The study was conducted in 12 volunteers, in accordance with the Helsinski Declaration, European Good Clinical Practices and Huriet law. The volunteers were divided into two groups (n=6 in each group).
# The dose was administered orally, under medical supervision, after a 10 h abstinence from food. No concomitant medication was allowed within the period of time from the screening examination to 24 h after the last administration.
# [2] = test system: CRL(:WI)BR rats; assay: 28-day repeated dose oral toxicity study in rats; format: in vivo, rat; conditions: for No observed adverse effect level (NOAEL): rat male and female, 28-day oral
# Procedure: To assess recovery post treatment, an additional 5 males and females were included in both the control and highest dosage groups. Treatment was carried out by gavage once daily. Control animals were treated with physiologic saline in the same way.
# Pre-treatment: general condition and behavior activity patterns were observed. Also in a subgroup of 5 male and 5 female animals, hematological and clinical chemistry tests were performed.
# During the treatment period and following a two-week recovery period the clinical observations were made daily. At weekly intervals body weight and food consumption were measured.
# At the end of the treatment, hematological, clinical chemistry evaluation and gross necropsy with organ weight assessment were conducted. […] In addition, the liver and kidneys and the organs showing macroscopic changes were examined microscopically in the low and middle dose groups, too.
# [3] = test system: CRL:(WI)BR rats; assay: Acute oral toxicity in rats; format: in vivo; conditions: rat
# Procedure: All animal toxicology studies were performed at Toxicological Research Centre (Veszprém, Hungary) using protocols compliant with OECD guidelines and Principles of Good Laboratory Practice. Following is a summary of the studies conducted.
# Acute oral toxicity studies were performed in rats (CRL(WI:)BR) and in mice (CRL: NMRI BR). A control and five dose groups were involved in the rat study at dose levels of 2000 mg/kg, 2600 mg/kg, 3400 mg/kg, 4400 mg/kg and 5700 mg/kg (equal to 1241 mg/kg, 1613 mg/kg, […], 2729 mg/kg and 3535 mg/kg free base, n=5 animals/sex/group).
smiles,measurement,setting,value
"[O-][n+]1cccc(/C(Cl)=N/OC[C@H](O)CN2CCCCC2)c1 [Compound I, N-[2-hydroxy-3-(1-piperidinyl)-propoxy]-pyridine-1-oxide-3-carboximidoyl chloride]","changes in safety parameters (laboratory parameters, vital signs, ECGs)",[1],No changes in any safety parameters
same,serious adverse events or deaths,[1],no serious adverse events or deaths
same,No observed adverse effect level (NOAEL),[2]; by base,233 mg/kg/day
same,No observed adverse effect level (NOAEL),[2]; by citrate,375 mg/kg/day
same,mortality,"[2]; rat, 375, 750, 1500 mg/kg/day oral, 28 days",No deaths occurred
same,Oral LD50 value,"[3]; female, by base",1977 - by base mg/kg
same,Oral LD50 value,"[3]; female, by citrate",3188 - by citrate mg/kg
same,Oral LD50 value,"[3]; male, by base",1754 (1425-2146) - by base mg/kg
same,Oral LD50 value,"[3]; male, by citrate",2828 (2297-3460) - by citrate mg/kg

# From US20080227813A1, “Pharmaceutical compositions and methods for treating diseases associated with neurodegeneration” (priority 2006, published 2008)
